Measurements reported in patent US20260297081A1, “COMPOUNDS AND METHODS OF TREATING CANCERS” (Cullgen Inc., priority 2023, published 2026).

Target: CDK4 (Homo sapiens, UniProt P11802+Q16531)
Experiment: CDK4 percentage degradation in Calu-1 cells (Table 6)
Type: cell-based
Set-up: Cells that express cyclin D1-3 and CDK4/6 proteins were treated with heterobifunctional compounds; endogenous in cells; host or cells: Calu-1
Settings: 16 hours; for inhibition at 0.04 µM: 40 nM; for inhibition at 0.2 µM: 200 nM
In short: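 Percentage degradation of Cyclin D1 and CDK4 derived from densitometry of ECL Western blots on lysates of Calu-1 cells. Treatment was 16 h with compound at either 40 nM or 200 nM.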

Chain of CDK4 (P11802 2-303 limits assumed): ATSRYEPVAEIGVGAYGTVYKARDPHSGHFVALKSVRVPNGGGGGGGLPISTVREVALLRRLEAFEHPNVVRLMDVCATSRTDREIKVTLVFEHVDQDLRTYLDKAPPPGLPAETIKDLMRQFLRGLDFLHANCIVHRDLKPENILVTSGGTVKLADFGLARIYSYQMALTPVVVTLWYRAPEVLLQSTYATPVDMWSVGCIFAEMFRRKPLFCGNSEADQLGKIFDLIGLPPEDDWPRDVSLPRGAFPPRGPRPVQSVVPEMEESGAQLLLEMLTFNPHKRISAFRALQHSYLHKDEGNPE
Chain of CDK4 (P24385 whole entry partner): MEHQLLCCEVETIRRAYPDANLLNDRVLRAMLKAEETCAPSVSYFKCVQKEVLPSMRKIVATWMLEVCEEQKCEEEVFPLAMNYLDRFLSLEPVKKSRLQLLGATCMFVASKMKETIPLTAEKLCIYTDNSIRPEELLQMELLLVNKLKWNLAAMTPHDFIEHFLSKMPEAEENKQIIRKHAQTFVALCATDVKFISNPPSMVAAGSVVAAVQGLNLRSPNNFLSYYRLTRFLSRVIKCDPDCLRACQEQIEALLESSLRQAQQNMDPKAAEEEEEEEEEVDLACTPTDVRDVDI
Chain of CDK4 (Q16531 2-1140 limits assumed): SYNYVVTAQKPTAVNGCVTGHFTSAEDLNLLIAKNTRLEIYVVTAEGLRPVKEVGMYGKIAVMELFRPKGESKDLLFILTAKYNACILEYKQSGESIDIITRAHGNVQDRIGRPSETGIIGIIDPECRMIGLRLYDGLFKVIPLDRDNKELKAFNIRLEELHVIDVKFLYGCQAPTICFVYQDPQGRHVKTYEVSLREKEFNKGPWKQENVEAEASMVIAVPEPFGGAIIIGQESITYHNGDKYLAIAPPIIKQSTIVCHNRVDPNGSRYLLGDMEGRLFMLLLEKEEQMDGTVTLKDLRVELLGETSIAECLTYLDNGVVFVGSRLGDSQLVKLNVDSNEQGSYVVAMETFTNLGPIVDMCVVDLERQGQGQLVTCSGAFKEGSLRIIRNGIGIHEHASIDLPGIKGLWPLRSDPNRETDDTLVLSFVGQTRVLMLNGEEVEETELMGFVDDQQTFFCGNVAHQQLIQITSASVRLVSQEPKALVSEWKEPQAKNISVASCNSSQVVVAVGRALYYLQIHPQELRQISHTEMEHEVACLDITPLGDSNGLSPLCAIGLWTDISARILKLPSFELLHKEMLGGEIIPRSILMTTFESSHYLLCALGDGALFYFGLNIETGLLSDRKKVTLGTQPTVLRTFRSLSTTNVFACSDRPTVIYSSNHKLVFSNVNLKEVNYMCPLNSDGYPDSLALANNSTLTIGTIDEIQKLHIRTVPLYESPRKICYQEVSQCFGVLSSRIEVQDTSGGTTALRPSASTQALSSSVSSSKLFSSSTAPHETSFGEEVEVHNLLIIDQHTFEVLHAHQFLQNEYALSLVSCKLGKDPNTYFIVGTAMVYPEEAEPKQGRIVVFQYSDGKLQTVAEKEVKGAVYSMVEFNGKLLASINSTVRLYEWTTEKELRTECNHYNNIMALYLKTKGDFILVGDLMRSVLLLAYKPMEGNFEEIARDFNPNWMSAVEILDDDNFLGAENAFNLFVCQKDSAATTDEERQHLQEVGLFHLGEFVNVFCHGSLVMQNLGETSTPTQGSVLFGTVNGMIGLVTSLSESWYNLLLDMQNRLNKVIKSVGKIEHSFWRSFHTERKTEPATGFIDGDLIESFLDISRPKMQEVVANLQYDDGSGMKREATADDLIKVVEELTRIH

inhibition at 0.04 µM [%]	inhibition at 0.2 µM [%]	Compound
50 to 80	50 to 80	CNc1ccc(C(=O)Nc2ccc(N(C)C)nn2)c(NCC2CC(CNC(=O)CN3CCN(c4ccc(Nc5ncc6c(C)c(C(C)=O)c(=O)n(C7CCCC7)c6n5)nc4)CC3)C2)n1 (stereo not drawn) [CPD-188, 2-(((3-((2-(4-(6-((6-acetyl-8-cyclopentyl-5-methyl-7-oxo-7,8-dihydropyrido[2,3-d]pyrimidin-2-yl)amino)pyridin-3-yl)piperazin-1-yl)acetamido)methyl)cyclobutyl)methyl)amino)-N-(6-(dimethylamino)pyridazin-3-yl)-6-(methylamino)nicotinamide]
30 to 50	50 to 80	CNc1ccc(C(=O)Nc2ccc(N(C)C)nn2)c(NC2CC3(CC(CC(=O)N4CCN(c5ccc(Nc6ncc7c(C)c(C(C)=O)c(=O)n(C8CCCC8)c7n6)nc5)CC4)C3)C2)n1 (stereo not drawn) [CPD-147, 2-((6-(2-(4-(6-((6-acetyl-8-cyclopentyl-5-methyl-7-oxo-7,8-dihydropyrido[2,3-d]pyrimidin-2-yl)amino)pyridin-3-yl)piperazin-1-yl)-2-oxoethyl)spiro[3.3]heptan-2-yl)amino)-N-(6-(dimethylamino)pyridazin-3-yl)-6-(methylamino)nicotinamide]
< 30	50 to 80	CNc1ccc(C(=O)Nc2ccc(C)c(=O)[nH]2)c(NCCCCCNC(=O)CN2CCN(c3ccc(Nc4ncc5c(C)c(C(C)=O)c(=O)n(C6CCCC6)c5n4)nc3)CC2)n1 [CPD-123, 2-((5-(2-(4-(6-((6-Acetyl-8-cyclopentyl-5-methyl-7-oxo-7,8-dihydropyrido[2,3-d]pyrimidin-2-yl)amino)pyridin-3-yl)piperazin-1-yl)acetamido)pentyl)amino)-N-(5-methyl-6-oxo-1,6-dihydropyridin-2-yl)-6-(methylamino)nicotinamide]
< 30	30 to 50	CNc1ccc(C(=O)Nc2ccc(N(C)C)nn2)c(NC2CC3(CC(NC(=O)N4CCN(c5ccc(Nc6ncc7c(C)c(C(C)=O)c(=O)n(C8CCCC8)c7n6)nc5)CC4)C3)C2)n1 (stereo not drawn) [CPD-134, 4-(6-((6-Acetyl-8-cyclopentyl-5-methyl-7-oxo-7,8-dihydropyrido[2,3-d]pyrimidin-2-yl)amino)pyridin-3-yl)-N-(6-((3-((6-(dimethylamino)pyridazin-3-yl)carbamoyl)-6-(methylamino)pyridin-2-yl)amino)spiro[3.3]heptan-2-yl)piperazine-1-carboxamide]
50 to 80	50 to 80	CNc1ccc(C(=O)Nc2ccc(N(C)C)nn2)c(NC[C@H]2CC[C@@H](NC(=O)CN3CCN(c4ccc(Nc5ncc6c(C)c(C(C)=O)c(=O)n(C7CCCC7)c6n5)nc4)CC3)CC2)n1 [CPD-193, 2-(((cis-4-(2-(4-(6-((6-acetyl-8-cyclopentyl-5-methyl-7-oxo-7,8-dihydropyrido[2,3-d]pyrimidin-2-yl)amino)pyridin-3-yl)piperazin-1-yl)acetamido)cyclohexyl)methyl)amino)-N-(6-(dimethylamino)pyridazin-3-yl)-6-(methylamino)nicotinamide]
30 to 50	50 to 80	CNc1ccc(C(=O)Nc2ccc(F)c(C3CC3)n2)c(NCCCCCNC(=O)CN2CCN(c3ccc(Nc4ncc5c(C)c(C(C)=O)c(=O)n(C6CCCC6)c5n4)nc3)CC2)n1 [CPD-113, 2-((5-(2-(4-(6-((6-Acetyl-8-cyclopentyl-5-methyl-7-oxo-7,8-dihydropyrido[2,3-d]pyrimidin-2-yl)amino)pyridin-3-yl)piperazin-1-yl)acetamido)pentyl)amino)-N-(6-cyclopropyl-5-fluoropyridin-2-yl)-6-(methylamino)nicotinamide]
< 30	30 to 50	CNc1ccc(C(=O)Nc2cccc(C(F)(F)F)n2)c(NC2CC3(CC(NC(=O)CN4CCN(c5ccc(Nc6ncc7c(C)c(C(C)=O)c(=O)n(C8CCCC8)c7n6)nc5)CC4)C3)C2)n1 (stereo not drawn) [CPD-91, 2-((6-(2-(4-(6-((6-Acetyl-8-cyclopentyl-5-methyl-7-oxo-7,8-dihydropyrido[2,3-d]pyrimidin-2-yl)amino)pyridin-3-yl)piperazin-1-yl)acetamido)spiro[3.3]heptan-2-yl)amino)-6-(methylamino)-N-(6-(trifluoromethyl)pyridin-2-yl)nicotinamide]
< 30	50 to 80	CNc1ccc(C(=O)Nc2cc(C)n(C)n2)c(NC[C@H]2CC[C@H](NC(=O)CN3CCN(c4ccc(Nc5ncc6c(C)c(C(C)=O)c(=O)n(C7CCCC7)c6n5)nc4)CC3)CC2)n1 [CPD-131, 2-(((trans-4-(2-(4-(6-((6-Acetyl-8-cyclopentyl-5-methyl-7-oxo-7,8-dihydropyrido[2,3-d]pyrimidin-2-yl)amino)pyridin-3-yl)piperazin-1-yl)acetamido)cyclohexyl)methyl)amino)-N-(1,5-dimethyl-1H-pyrazol-3-yl)-6-(methylamino)nicotinamide]
< 30	30 to 50	CC(=O)c1c(C)c2cnc(Nc3ccc(N4CCN(CC(=O)NCCCCCNc5nc(C6CC6)ccc5C(=O)Nc5ccc(C)c(C6CC6)n5)CC4)cn3)nc2n(C2CCCC2)c1=O [CPD-44, 2-((5-(2-(4-(6-((6-Acetyl-8-cyclopentyl-5-methyl-7-oxo-7,8-dihydropyrido[2,3-d]pyrimidin-2-yl)amino)pyridin-3-yl)piperazin-1-yl)acetamido)pentyl)amino)-6-cyclopropyl-N-(6-cyclopropyl-5-methylpyridin-2-yl)nicotinamide]
< 30	< 30	CNc1ccc(C(=O)Nc2ccc(N(C)C)nn2)c(NC2CC3(CC(NCCN4CCN(c5ccc(Nc6ncc7c(C)c(C(C)=O)c(=O)n(C8CCCC8)c7n6)nc5)CC4)C3)C2)n1 (stereo not drawn) [CPD-96, 2-((6-((2-(4-(6-((6-Acetyl-8-cyclopentyl-5-methyl-7-oxo-7,8-dihydropyrido[2,3-d]pyrimidin-2-yl)amino)pyridin-3-yl)piperazin-1-yl)ethyl)amino)spiro[3.3]heptan-2-yl)amino)-N-(6-(dimethylamino)pyridazin-3-yl)-6-(methylamino)nicotinamide]
30 to 50	50 to 80	CC(=O)c1c(C)c2cnc(Nc3ccc(N4CCN(CC(=O)NCC5CC(Nc6nc(C7CC7)ccc6C(=O)Nc6cc(C)n(C)n6)C5)CC4)cn3)nc2n(C2CCCC2)c1=O (stereo not drawn) [CPD-213, 2-((3-((2-(4-(6-((6-acetyl-8-cyclopentyl-5-methyl-7-oxo-7,8-dihydropyrido[2,3-d]pyrimidin-2-yl)amino)pyridin-3-yl)piperazin-1-yl)acetamido)methyl)cyclobutyl)amino)-6-cyclopropyl-N-(1,5-dimethyl-1H-pyrazol-3-yl)nicotinamide]
50 to 80	> 80	COc1ccc(NC(=O)c2ccc(C)nc2NCCCCCCCNC(=O)CN2CCN(c3ccc(Nc4ncc5c(C)c(C(C)=O)c(=O)n(C6CCCC6)c5n4)nc3)CC2)nn1 [CPD-2, 2-((7-(2-(4-(6-((6-acetyl-8-cyclopentyl-5-methyl-7-oxo-7,8-dihydropyrido[2,3-d]pyrimidin-2-yl)amino)pyridin-3-yl)piperazin-1-yl)acetamido)heptyl)amino)-N-(6-methoxypyridazin-3-yl)-6-methylnicotinamide]
< 30		CNc1ccc(C(=O)Nc2ccc(C(F)(F)F)nn2)c(NCCCCCNC(=O)CN2CCN(c3ccc(Nc4ncc5c(C)c(C(C)=O)c(=O)n(C6CCCC6)c5n4)nc3)CC2)n1 [CPD-19, 2-((5-(2-(4-(6-((6-Acetyl-8-cyclopentyl-5-methyl-7-oxo-7,8-dihydropyrido[2,3-d]pyrimidin-2-yl)amino)pyridin-3-yl)piperazin-1-yl)acetamido)pentyl)amino)-6-(methylamino)-N-(6-(trifluoromethyl)pyridazin-3-yl)nicotinamide]
< 30	< 30	CC(=O)c1c(C)c2cnc(Nc3ccc(N4CCN(C(=O)NCCC5CC(Nc6cc(Cl)ccc6C(=O)Nc6ccc(C)c(C7CC7)n6)C5)CC4)cn3)nc2n(C2CCCC2)c1=O (stereo not drawn) [CPD-256, 4-(6-((6-Acetyl-8-cyclopentyl-5-methyl-7-oxo-7,8-dihydropyrido[2,3-d]pyrimidin-2-yl)amino)pyridin-3-yl)-N-(2-(3-((5-chloro-2-((6-cyclopropyl-5-methylpyridin-2-yl)carbamoyl)phenyl)amino)cyclobutyl)ethyl)piperazine-1-carboxamide]
50 to 80	50 to 80	CNc1ccc(C(=O)Nc2ccn(C)c2)c(NC2CC3(CC(NC(=O)CN4CCN(c5ccc(Nc6ncc7c(C)c(C(C)=O)c(=O)n(C8CCCC8)c7n6)nc5)CC4)C3)C2)n1 (stereo not drawn) [CPD-183, 2-((6-(2-(4-(6-((6-acetyl-8-cyclopentyl-5-methyl-7-oxo-7,8-dihydropyrido[2,3-d]pyrimidin-2-yl)amino)pyridin-3-yl)piperazin-1-yl)acetamido)spiro[3.3]heptan-2-yl)amino)-N-(1-methyl-1H-pyrrol-3-yl)-6-(methylamino)nicotinamide]
50 to 80	50 to 80	CNc1ccc(C(=O)Nc2ccn(C)n2)c(NCCCCCNC(=O)CN2CCN(c3ccc(Nc4ncc5c(C)c(C(C)=O)c(=O)n(C6CCCC6)c5n4)nc3)CC2)n1 [CPD-49, 2-((5-(2-(4-(6-((6-Acetyl-8-cyclopentyl-5-methyl-7-oxo-7,8-dihydropyrido[2,3-d]pyrimidin-2-yl)amino)pyridin-3-yl)piperazin-1-yl)acetamido)pentyl)amino)-N-(1-methyl-1H-pyrazol-3-yl)-6-(methylamino)nicotinamide]
< 30	30 to 50	CNc1ccc(C(=O)Nc2cc(C)n(C)n2)c(NC2CC(NC(=O)CN3CCN(c4ccc(Nc5ncc6c(C)c(C(C)=O)c(=O)n(C7CCCC7)c6n5)nc4)CC3)C2)n1 (stereo not drawn) [CPD-197, 2-((3-(2-(4-(6-((6-acetyl-8-cyclopentyl-5-methyl-7-oxo-7,8-dihydropyrido[2,3-d]pyrimidin-2-yl)amino)pyridin-3-yl)piperazin-1-yl)acetamido)cyclobutyl)amino)-N-(1,5-dimethyl-1H-pyrazol-3-yl)-6-(methylamino)nicotinamide]
